# Paper PMC12040169 (PLOS Biology, 2025)
# Experiment: in vitro
# Conditions: human, hela cells, % viability
row,SMILES,"viability at 28.5 h, 10 µM"
1,CCCCN=C(NCCCn1cccn1)N1CCCN(C(C)=O)CC1 [CBK304273I],107%
2,N#Cc1ccc(Cn2cnc(NC(=O)c3cnccn3)n2)cc1 [CBK305233],88.5%
3,Cc1ccccc1Nc1nc(N)nc(CN2CCN(C)CC2)n1 [CBK304217],89.9%
4,Cc1[nH]nc(O)c1Cc1ccccc1F [CBK105306],97.1%
5,CCN1CC2(CCC1=O)CCN(Cc1nncn1C(C)C)CC2 [CBK307460],107%
6,Cc1cc(C)c(COc2nccnc2OC2CCN(CCCC#N)CC2)c(C)c1 [CBK161575],91.6%
7,CN1CCC(N2CCN(C(=O)NCc3ccc4c(c3)OCO4)CC2)CC1 [CBK155885],88.3%
8,CCOc1c(Br)cc(CNc2nc[nH]n2)cc1OC [CBK268009],104%
9,COc1cc(-c2ccc(C(=O)N(C)CCN(C)C)c(N(C)C)n2)cc(OC)c1OC [CBK106076],109%
10,Cc1cc(=O)n2ncnc2n1COCCO [CBK262919],97.4%
11,C=CCn1c(-c2sc(NC(=O)CCc3ccco3)nc2C)n[nH]c1=S [CBK295312],89.4%
12,COC(=O)Nc1ccc2c(c1)N(C(=O)CCN1CCOCC1)c1ccccc1CC2 [CBK261284C],95.9%
13,O=C(O)/C=C/c1cn(-c2ccccc2)nc1-c1cccs1 [CBK263119],102%
14,N#CCCn1cc(C(=O)Oc2ccc(-c3ccccc3)cc2)c(-c2cccc([N+](=O)[O-])c2)n1 [CBK267968],105%
15,CC(NC(=O)/C(=C\c1ccccc1)NC(=O)c1ccc(Br)o1)C(=O)O (centres unmarked) [CBK264934],107%
16,O=C(Nc1ccc(F)c(C(F)(F)F)c1)c1cncc(-c2ccc(C(=O)N3CCOCC3)cc2)c1 [CBK160216],88.2%
17,CS(=O)(=O)N1CCN(c2ccccc2NC(=O)COc2ccc(Cl)cc2)CC1 [CBK268854],94.7%
18,O=C(c1cccnc1)C1CCN(C(=O)c2cc(F)cc(F)c2)CC1 [CBK283746],102%
19,COc1ccc(CCNS(=O)(=O)c2cc([N+](=O)[O-])ccc2C)cc1OC [CBK267412],94.2%
20,C#CCN1N=C(c2ccc(OC)cc2)Cn2c(cc3sccc32)C1=O [CBK284209],91.2%
21,COc1ccc(CNc2ccc(C3c4ccsc4CCN3C(C)=O)cc2)cc1 (centres unmarked) [CBK286444],102%
22,CC(=O)N1CCc2sccc2C1c1ccccc1NC(=O)C1CC1 (centres unmarked) [CBK282903],95%

row,SMILES,"viability at 28.5 h, 10 µM"
1,COc1cncc(-c2ccc(N3CCN(C(=O)c4ccco4)CC3)nc2)c1 [CBK037801],96.7%
2,O=C(Cn1cccc(C(=O)NC2CCCC2)c1=O)NCC1(c2ccccc2)CCCC1 [CBK285975],96.2%
3,Cc1nc(S(=O)(=O)N2CCOC3(CCCC3)C2)cn1C [CBK304834],109%
4,CCOCCCNc1nc2c(c(=O)[nH]c(=O)n2C)n1CCC(C)C [CBK287968],87.7%
5,CCN1CC(C(=O)NCc2ccc(CN3CCCCC3)cc2)CC1=O (centres unmarked) [CBK281400],87.3%
6,O=C(Nc1ccc(Br)c2cccnc12)c1ccc(Cn2cc(Cl)cn2)o1 [CBK265893],88.2%
7,Cc1nc2sc3c(c2c2nc(-c4ccncc4)nn12)CCCC3 [CBK288541],94.5%
8,O=C(C1CCC1)N1CCCC1c1nnc(-c2ccsc2)o1 (centres unmarked) [CBK283365],101%
9,CC1(C(=O)O)CC(C)(C(=O)O)CC(C)(C(=O)O)C1 (centres unmarked) [CBK266107],91.8%
10,COc1ccccc1NC(=O)c1c(NC(=O)c2cccs2)sc2c1CCC(C(C)(C)C)C2 (centres unmarked) [CBK264123],100%
11,COc1ccc(F)c(CNCC2CCN(C(=O)OC(C)(C)C)CC2)c1 [CBK056716],95.9%
12,COCC1(C(=O)N(C)Cc2nnc(-c3ccccc3)o2)CCC1 [CBK306987],109%
13,NC(=O)c1ccc(C(=O)NCC2CN3CCCN2CC3)cc1 (centres unmarked) [CBK304143],114%
14,CSc1ccccc1C(=O)N1CCN(S(=O)(=O)c2sc(C(=O)O)c(C)c2C(=O)O)CC1 [CBK297149],90.4%
15,COc1cccc(-c2cncc(C3CCN(C(=O)CCOc4ccccc4)CC3)n2)c1 [CBK286153],88.9%
16,CCN(CC)C(=O)N1CCN(CCCC(=O)c2ccc(F)cc2)CC1 [CBK025042C],85.4%
17,O=C1N=C(NC2CCCCCC2)SC1CC(=O)N1CCOC12CCCCC2 (centres unmarked) [CBK067355],94%
18,Cc1cc(F)ccc1S(=O)(=O)N1CCC2(CC1)CNC(=O)C2 [CBK283354],104%
19,O=C(NC(Cc1cnc[nH]1)C(=O)O)c1ccccc1 (centres unmarked) [CBK059018],102%
20,FC(F)(F)c1nc2ccccc2nc1OC1CCOC1 (centres unmarked) [CBK115806],99.6%
21,Cc1ccc(-c2ncc(OCCn3ccnc3)nc2N)cc1C [CBK145148],102%
22,O=C(O)CCc1ccc(-c2cccs2)n1CCOc1ccccc1Cl [CBK267885],89%

row,SMILES,"viability at 28.5 h, 10 µM"
1,Cc1cc(/C=N\NC(=O)c2cc3ccccc3cc2O)c(C)n1-c1ccccc1 [CBK261801],84.6%
2,CC(C)(C)NS(=O)(=O)c1ccc(CCC(=O)Nc2ccc(F)c(Cl)c2)cc1 [CBK266974],89.9%
3,CCN(Cc1cccc(C(=O)O)c1)Cc1noc(C2CCC2)n1 [CBK307708],102%
4,CN(Cc1ccccc1)c1nc(C(F)(F)F)cc(=O)[nH]1 [CBK000319],92%
5,COc1ccc(Oc2cncc(OC3CCN(Cc4ccc(Cl)c(Cl)c4)C3)n2)cc1OC (centres unmarked) [CBK084391],115%
6,Cc1noc(C)c1NC(=O)Cc1cccnc1 [CBK200391],96.6%
7,COC(=O)c1cccc2c1[nH]c1ccccc12 [CBK001709],99.9%
8,Cc1cc(C)nc(N/C(=N\C(=S)Nc2cccc(Cl)c2C)NCc2cccnc2)n1 [CBK267254],93.5%
9,COc1ccnc(N2C[C@@H]3OCC(=O)N(Cc4ccccc4)[C@@H]3C2)n1 [CBK289666],91%
10,CC12CN3CC(C)(CN(C1)C3c1cc(Br)ccc1O)C2O (centres unmarked) [CBK262664],112%
11,CC(=O)Nc1cc(C(=O)NCCc2ccccc2)ccc1S(=O)(=O)c1ccc(C)cc1 [CBK071771],89.3%
12,O=C(Nc1cccc(Cl)c1)c1cc2cc(O)ccc2cc1O [CBK016894],98.2%
13,O=C(Cn1ncc2ccccc2c1=O)NNC(=S)NC1CC2CCC1C2 (centres unmarked) [CBK267892],106%
14,O=C(O)c1ccc(-c2ccc(N3CCN(C(=O)c4ccco4)CC3)nc2)cc1 [CBK037700],97.9%
15,CC(C)c1ccc(S(=O)(=O)Nc2cccnc2)cc1 [CBK043884],97.9%
16,Cc1c(C#N)sc(-c2nc[nH]n2)c1C [CBK005952],77.6%
17,O=C(CCN1C(=O)/C(=C/c2ccc(F)cc2)SC1=S)NNC(=O)c1cccnc1 [CBK262862],104%
18,CCOc1ccc(-c2nn(-c3ccccc3)cc2/C=C2\SC(=S)N(CC(=O)O)C2=O)cc1F [CBK265647],105%
19,Cc1cc(/C=C2\SC(=O)N(CC(=O)Nc3ccccc3F)C2=O)c(C)n1-c1cccnc1 [CBK264770],95.5%
20,Clc1ccc(-c2c[nH]c([C@@H]3COCCN3Cc3csnn3)n2)cc1 [CBK289309],87.1%
21,CC(C)c1ccc(NC(=O)CSc2nnc(CN3CCOCC3)n2C)cc1 [CBK268235],93.7%
22,CC(=O)c1ccc(-c2cnc3[nH]c(=O)n([C@@H](C)c4ccccc4)c3n2)s1 [CBK064360],98.3%

row,SMILES,"viability at 28.5 h, 10 µM"
1,O=C(Nc1ccnn1Cc1ccccc1)C1CC(c2cccc(F)c2)=NO1 (centres unmarked) [CBK297772],112%
2,Cn1ccnc1C(NC(=O)c1cccnc1)c1ccc(F)c(F)c1 (centres unmarked) [CBK283807],100%
3,O=C(O)CC(NC=C1C(=O)CCCC1=O)C(=O)O (centres unmarked) [CBK261997],85.2%
4,C/C(N)=C(/C#N)C(NC(=O)C1CCCCC1)(C(F)(F)F)C(F)(F)F [CBK267902],91.1%
5,COC(=O)COc1ccc(C(NC(=O)c2ccccc2)C(Cl)(Cl)Cl)cc1 (centres unmarked) [CBK265437],97.8%
6,O=S(=O)(NC(c1ccccc1)c1ccccc1)c1ccc(Cl)cc1 [CBK261759],104%
7,CCOC(=O)c1c(NC(=O)CN2CCOCC2)sc2c1CCC2 [CBK262548],102%
8,COc1ccc(NCc2cc(I)c(OCc3ccccc3)c(OC)c2)cc1 [CBK074452],106%
9,CN(C)CCCNC(=S)NC(=O)c1ccccc1 [CBK265317],117%
10,CSCCOc1nccnc1N1CCCC1 [CBK115757],120%
11,O=c1c(N2CCCNCC2)nccn1CCOc1ccc(Oc2ccccc2)cc1 [CBK028615T],101%
12,O=C(O)CCCC(=O)Nc1ccc(O)cc1 [CBK263567],90.9%
13,CC(C)(C)OC(=O)NCCc1ccc(Nc2cc(-c3ccsc3)ncn2)cc1 [CBK090958],115%
14,CCOc1ccc(-c2nc(N)ncc2Oc2ccc(OC)cc2)c(O)c1 [CBK288105],101%
15,CC(C)(C)c1n[nH]c(C2CN(C(=O)CCc3cscn3)CCO2)n1 (centres unmarked) [CBK305205],89.7%
16,OCCN1CCN(c2nc(NCC3CCCO3)c3ccccc3n2)CC1 (centres unmarked) [CBK266659C],99.1%
17,Cc1ccc(C(=O)N[C@@H]2C[C@H](C)CC[C@H]2C(C)C)cc1C [CBK085823],87.1%
18,O=[N+]([O-])c1cc(/C=N/Nc2nc(N3CCOCC3)nc(N3CCOCC3)n2)c(O)c([N+](=O)[O-])c1 [CBK261237],105%
19,Cc1nc(C)c(CNC(=O)NC2CCCN(c3ccn(C)n3)C2=O)s1 (centres unmarked) [CBK305457],86%
20,N#Cc1cccc(OCC(=O)NCC2(N3CCOCC3)CCSC2)c1 (centres unmarked) [CBK305685],86.3%
21,O=C(O)CCCn1cc(NC(=O)c2cc(F)c(F)cc2Cl)cn1 [CBK269967],87.8%
22,O[C@H]1CCC[C@@H]1NCc1ccc(Cl)c(Cl)c1 [CBK005217],87%

# Same assay, conditions: human, hela cells, % viability, bulk resorufin, single well
row,SMILES,"viability at 28.5 h, 10 µM"
1,O=C(NC1CC1)c1nn(Cc2ccc(S(=O)(=O)N3CCCCC3)cc2)c2ccccc12 [CBK047820],106%
